Assay results published in patent US20160145257A1, “SUBSTITUTED XANTHINES AND METHODS OF USE THEREOF” (Hydra Biosciences, Inc., priority 2013, published 2016).

Molecular target: T1, hTRPC5 (Homo sapiens, UniProt Q9UL62)
T1 construct: expressed in transfected cells; host or cells: HEK293 TREx cells with inducible TRPC5 expression
T1 sequence (Q9UL62 1-973): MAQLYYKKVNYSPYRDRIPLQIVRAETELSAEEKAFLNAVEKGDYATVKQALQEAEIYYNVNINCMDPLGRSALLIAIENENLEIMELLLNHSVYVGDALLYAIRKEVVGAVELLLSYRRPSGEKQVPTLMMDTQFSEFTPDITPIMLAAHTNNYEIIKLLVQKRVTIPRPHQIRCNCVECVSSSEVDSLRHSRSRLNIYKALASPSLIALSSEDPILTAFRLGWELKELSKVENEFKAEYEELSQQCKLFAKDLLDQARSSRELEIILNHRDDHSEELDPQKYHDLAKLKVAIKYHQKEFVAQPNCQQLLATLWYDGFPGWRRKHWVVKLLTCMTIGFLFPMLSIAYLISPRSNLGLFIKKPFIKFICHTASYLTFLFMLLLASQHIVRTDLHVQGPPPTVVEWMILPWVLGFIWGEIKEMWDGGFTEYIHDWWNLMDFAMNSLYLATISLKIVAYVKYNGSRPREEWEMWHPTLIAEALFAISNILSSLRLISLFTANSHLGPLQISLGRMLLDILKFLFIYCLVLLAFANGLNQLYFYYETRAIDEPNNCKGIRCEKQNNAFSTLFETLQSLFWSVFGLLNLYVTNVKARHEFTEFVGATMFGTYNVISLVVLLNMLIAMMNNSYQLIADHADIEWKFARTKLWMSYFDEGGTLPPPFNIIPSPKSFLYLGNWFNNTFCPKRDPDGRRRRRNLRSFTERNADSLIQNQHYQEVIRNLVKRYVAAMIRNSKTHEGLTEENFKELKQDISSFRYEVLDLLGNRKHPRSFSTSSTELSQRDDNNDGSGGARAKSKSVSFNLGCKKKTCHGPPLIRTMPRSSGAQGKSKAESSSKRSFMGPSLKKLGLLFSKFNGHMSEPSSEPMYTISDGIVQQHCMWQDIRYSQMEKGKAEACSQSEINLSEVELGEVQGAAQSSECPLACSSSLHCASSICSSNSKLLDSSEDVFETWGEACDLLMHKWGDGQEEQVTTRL
Assay: Whole-cell patch clamp, block of LaCl3-activated TRPC5 inward current
Assay type: cell-based
Conditions: TRPC5-expressing HEK293 TREx cells, 80 μM LaCl3, inward current, IC50 estimated from 5 μM and 500 nM, read-out: hTRPC5 Patch La3+ Inwd (nM) (All Batches)
Procedure, shortened: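 Whole-cell recordings in induced TRPC5-expressing HEK293 TREx cells, holding −40 mV, 400 ms ramps −120 to +100 mV every 5 s; current activated by 80 μM external LaCl3 and 1,400 nM pipette free Ca2+ (pH 7.2 internal, 7.4 external). Inward block at −80 mV, with LaCl3 present; IC50 estimated from testing at 5 μM and 500 nM.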

Row | IC50 [nM] | SMILES
1 | 1000 to 2000 | CCc1coc(CSc2nc3c(c(=O)n(C)c(=O)n3C)n2Cc2ccc(C#N)cc2)n1 [Compound 169, 4-((8-((4-ethyloxazol-2-yl)methylthio)-1,3-dimethyl-2,6-dioxo-2,3-dihydro-1H-purin-7(6H)-yl)methyl)benzonitrile]
2 | < 100 | Cn1c(=O)c2c(nc(Oc3cccc(OC(F)(F)F)c3)n2Cc2ccc(Cl)c(Cl)c2)n(C)c1=O [Compound 197, 7-(3,4-dichlorobenzyl)-1,3-dimethyl-8-(3-(trifluoromethoxy)phenoxy)-1H-purine-2,6(3H,7H)-dione]
3 | 2000 to 10000 | COc1cccc(Cn2c(Oc3ccc(-c4ccccn4)cc3)nc3c2c(=O)n(C)c(=O)n3C)c1 [Compound 189, 7-(3-methoxybenzyl)-1,3-dimethyl-8-(4-(pyridin-2-yl)phenoxy)-1H-purine-2,6(3H,7H)-dione]
4 | 100 to 500 | Cn1c(=O)c2c(nc(Sc3cccc(C(F)(F)F)c3)n2Cc2ccc(Cl)cc2)n(C)c1=O [Compound 192, 7-(4-chlorobenzyl)-1,3-dimethyl-8-(3-(trifluoromethyl)phenylthio)-1H-purine-2,6(3H,7H)-dione]
5 | 2000 to 10000 | Cn1c(=O)c2c(nc(Cc3cccc(CO)c3)n2Cc2cccc(Br)c2)n(C)c1=O [Compound 124]
6 | < 100 | Cc1cc(Cn2c(Oc3cccc(OC(F)(F)F)c3)nc3c2c(=O)n(C)c(=O)n3C)ccc1Cl [Compound 206, 7-(4-chloro-3-methylbenzyl)-1,3-dimethyl-8-(3-(trifluoromethoxy)phenoxy)-1H-purine-2,6(3H,7H)-dione]
7 | < 100 | CCCC(O)C(C)(C)Sc1nc2c(c(=O)n(C)c(=O)n2C)n1Cc1cccc(Br)c1 (stereo not drawn) [Compound 122, 7-(3-bromobenzyl)-8-(3-hydroxy-2-methylhexan-2-ylthio)-1,3-dimethyl-1H-purine-2,6(3H,7H)-dione]
8 | 2000 to 10000 | CCOc1nc2c(c(=O)n(C)c(=O)n2C)n1Cc1cccc(Cl)c1 [Compound 154, 7-(3-Chlorobenzyl)-8-ethoxy-1,3-dimethyl-1H-purine-2,6(3H,7H)-dione]
9 | 2000 to 10000 | CCc1coc(CSc2nc3c(c(=O)n(C)c(=O)n3C)n2Cc2ccc(C(C)=O)cc2)n1 [Compound 181, 7-(4-acetylbenzyl)-8-((4-ethyloxazol-2-yl)methylthio)-1,3-dimethyl-1H-purine-2,6(3H,7H)-dione]
10 | 500 to 1000 | Cn1c(=O)c2c(nc(Oc3ccc(C(F)(F)F)cc3)n2Cc2ccc(Cl)cc2)n(C)c1=O [Compound 144]
11 | 2000 to 10000 | CCCC(=O)c1cccc(Cc2nc3c(c(=O)n(C)c(=O)n3C)n2Cc2cccc(Br)c2)c1 [Compound 161, 7-(3-bromobenzyl)-8-(3-butyrylbenzyl)-1,3-dimethyl-1H-purine-2,6(3H,7H)-dione]
12 | < 100 | Cn1c(=O)c2c(nc(Oc3cccc(OC(F)(F)F)c3)n2Cc2ccc3ccccc3c2)n(C)c1=O [Compound 191, 1,3-dimethyl-7-(naphthalen-2-ylmethyl)-8-(3-(trifluoromethoxy)phenoxy)-1H-purine-2,6(3H,7H)-dione]
13 | 100 to 500 | Cn1c(=O)c2c(nc(Oc3cccc(C(F)(F)F)c3)n2Cc2cccc(Br)c2)n(C)c1=O [Compound 138, 7-(3-Bromobenzyl)-1,3-dimethyl-8-(3-(trifluoromethyl)phenoxy)-1H-purine-2,6(3H,7H)-dione]
14 | 100 to 500 | Cn1c(=O)c2c(nc(Oc3cccc(OC(F)(F)F)c3)n2Cc2cccc(Cl)c2)n(C)c1=O [Compound 168, 7-(3-chlorobenzyl)-1,3-dimethyl-8-(3-(trifluoromethoxy)phenoxy)-1H-purine-2,6(3H,7H)-dione]
15 | 100 to 500 | CC(c1ccc(Cl)cc1)n1c(Oc2cccc(C(F)(F)F)c2)nc2c1c(=O)n(C)c(=O)n2C (stereo not drawn) [Compound 187, 7-(1-(4-chlorophenyl)ethyl)-1,3-dimethyl-8-(3-(trifluoromethyl)phenoxy)-1H-purine-2,6(3H,7H)-dione]
16 | 100 to 500 | COc1cccc(Cn2c(Oc3cccc(OC(F)(F)F)c3)nc3c2c(=O)n(C)c(=O)n3C)c1 [Compound 160, 7-(3-methoxybenzyl)-1,3-dimethyl-8-(3-(trifluoromethoxy)phenoxy)-1H-purine-2,6(3H,7H)-dione]
17 | 2000 to 10000 | Cn1c(=O)c2c(nc(Nc3cccc(C(F)(F)F)c3)n2Cc2cccc(Br)c2)n(C)c1=O [Compound 172]
18 | 1000 to 2000 | COc1cccc(Cn2c(Oc3ccc(Br)cc3)nc3c2c(=O)n(C)c(=O)n3C)c1 [Compound 194, 8-(4-bromophenoxy)-7-(3-methoxybenzyl)-1,3-dimethyl-1H-purine-2,6(3H,7H)-dione]
19 | 2000 to 10000 | CCC(CO)NC(=O)C(C)Cc1nc2c(c(=O)n(C)c(=O)n2C)n1Cc1cccc(Br)c1 (stereo not drawn) [Compound 165]

The remaining lines, values behind:

Row | SMILES | IC50 [nM]
20 | CCCc1cccc(Oc2nc3c(c(=O)n(C)c(=O)n3C)n2Cc2cccc(Br)c2)c1 [Compound 113, 7-(3-bromobenzyl)-1,3-dimethyl-8-(3-propylphenoxy)-1H-purine-2,6(3H,7H)-dione] | < 100
21 | CCCOCCc1nc2c(c(=O)n(C)c(=O)n2C)n1Cc1ccc(C)cc1 [Compound 94, 1,3-dimethyl-7-(4-methylbenzyl)-8-(2-propoxyethyl)-1H-purine-2,6(3H,7H)-dione] | 2000 to 10000
22 | CCCOCCc1nc2c(c(=O)n(C)c(=O)n2C)n1Cc1cccc(F)c1 [Compound 92] | 2000 to 10000
23 | CCOC(=O)CCCc1nc2c(c(=O)n(C)c(=O)n2C)n1Cc1cccc(Br)c1 [Compound 50, Ethyl 4-(7-(3-bromobenzyl)-1,3-dimethyl-2,6-dioxo-2,3,6,7-tetrahydro-1H-purin-8-yl)butanoate] | 1000 to 2000
24 | CCOC(=O)CC(C)c1nc2c(c(=O)n(C)c(=O)n2C)n1Cc1cccc(Br)c1 (stereo not drawn) [Compound 86] | 100 to 500
25 | CCOc1nc2c(c(=O)n(C)c(=O)n2C)n1Cc1cccc(Br)c1 [Compound 28, 7-(3-bromobenzyl)-8-ethoxy-1,3-dimethyl-1H-purine-2,6(3H,7H)-dione] | 2000 to 10000
26 | CCOC(=O)/C=C/c1nc2c(c(=O)n(C)c(=O)n2C)n1Cc1cccc(Br)c1 [Compound 36] | 2000 to 10000
27 | Cn1c(=O)c2c(nc(CCCO)n2Cc2cccc(Br)c2)n(C)c1=O [Compound 43] | 2000 to 10000
28 | Cn1c(=O)c2c(nc(CC(=O)O)n2Cc2cccc(Br)c2)n(C)c1=O [Compound 25, 2-(7-(3-bromobenzyl)-1,3-dimethyl-2,6-dioxo-2,3,6,7-tetrahydro-1H-purin-8-yl)acetic acid] | 2000 to 10000
29 | Cn1c(=O)c2c(nc(SCc3cccnc3)n2Cc2cccc(Br)c2)n(C)c1=O [Compound 10, 7-(3-bromobenzyl)-1,3-dimethyl-8-(pyridin-3-ylmethylthio)-1H-purine-2,6(3H,7H)-dione] | 2000 to 10000
30 | CCCCOCc1nc2c(c(=O)n(C)c(=O)n2C)n1Cc1cccc(Br)c1 [Compound 55, 7-(3-bromobenzyl)-8-(butoxymethyl)-1,3-dimethyl-1H-purine-2,6(3H,7H)-dione] | 500 to 1000
31 | CCOCCCc1nc2c(c(=O)n(C)c(=O)n2C)n1Cc1cccc(Br)c1 [Compound 54, 7-(3-bromobenzyl)-8-(3-ethoxypropyl)-1,3-dimethyl-1H-purine-2,6(3H,7H)-dione] | 2000 to 10000
32 | CCOC(=O)C(C)(C)Sc1nc2c(c(=O)n(C)c(=O)n2C)n1Cc1cccc(Br)c1 [Compound 9, Ethyl 2-(7-(3-bromobenzyl)-1,3-dimethyl-2,6-dioxo-2,3,6,7-tetrahydro-1H-purin-8-ylthio)-2-methylpropanoate] | < 100
33 | CCOC(=O)Cc1nc2c(c(=O)n(C)c(=O)n2C)n1Cc1cccc(Br)c1 [Compound 34, Ethyl 2-(7-(3-bromobenzyl)-1,3-dimethyl-2,6-dioxo-2,3,6,7-tetrahydro-1H-purin-8yl)acetate] | 2000 to 10000
34 | CCOC(=O)CC(C)(C)c1nc2c(c(=O)n(C)c(=O)n2C)n1Cc1cccc(Br)c1 [Compound 96, Ethyl 3-(7-(3-bromobenzyl)-1,3-dimethyl-2,6-dioxo-2,3,6,7-tetrahydro-1H-purin-8-yl)-3-methylbutanoate] | 500 to 1000
35 | CCc1ccccc1Oc1nc2c(c(=O)n(C)c(=O)n2C)n1Cc1ccc(Cl)cc1 [Compound 74] | 100 to 500
36 | Cn1c(=O)c2c(nc(CCCN3CCCC3)n2Cc2cccc(Br)c2)n(C)c1=O [Compound 81] | 2000 to 10000
